Measured values from patent US20110150833A1, “BENZOPYRANS AND ANALOGS AS RHO KINASE INHIBITORS” (The Scripps Research Institute, priority 2007, published 2011).

System: N2a cells
Assay: In vitro cell-based neurite length (N2a) assay
Conditions: Mus musculus, neurite retraction induced by 5 uM LPA
Procedure: In Vitro Cell-Based Neurite Length (N2a) Assay
N2a cells are maintained in DMEM/FBS at 37 C and 5% CO2. For the experiment the cells were plated on a poly-D-lysine coated 96-well tissue culture plate. After attachment, cell differentiation was induced for 2 days by addition of 10 uM retinoic acid. Cells were treated for 1 h with a dilution of compounds in 0.3% DMSO final concentration before neurite retraction was induced by 5 uM LPA. Cells were stained for tubulin and nuclei and images were acquired on an INCell 1000 workstation. Images were analyzed using the developer toolbox and neurite length was quantitated.

Which IC50 does the source give for COc1ccc2c(c1)CC(C(=O)Nc1ccc(-c3cn[nH]c3)cc1)CO2 (stereo not shown) [Example 92, 6-methoxy-chroman-3-carboxylic acid [4-(1H-pyrazol-4-yl)-phenyl]-amide] here?
The IC50 was 27 nM.
